Where two headings read alike, the source gives them in different places.
Columns and labels:
[1] = tested on: triglycerides; assay: Antilipemic effect: percent triglycerides inhibition in plasma of rats given an olive oil-cholesterol mixture; assay type: in vivo, male Wistar rats; details: for inhibition in vivo at 200 mg/kg: oral 200 mg/kg (asterisked values), read-out: Anti-lipemic effect, TG (percent triglycerides inhibition), asterisked; for inhibition in vivo at 200 mg/kg / inhibition in vivo at 100 mg/kg: plasma 2 hours after dosing, Wistar rat; for TG (percent triglycerides inhibition), Table 3: dose not given; for inhibition in vivo at 100 mg/kg: oral 100 mg/kg, read-out: Anti-lipemic effect, TG (percent triglycerides inhibition)
In short: (§1)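 Male Wistar rats, seven weeks old, 200 to 220 g, 5 per group, dosed orally at 100 or 200 mg/kg in olive oil-cholesterol mixture (15% cholesterol) at 10 ml/kg. Plasma triglycerides measured at 2 hours, total cholesterol at 8 hours, by enzymatic kits; percent inhibition calculated relative to vehicle control and untreated normal groups.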

[2] = Acute toxicity; details: rat, in vivo
Description: Six-week-old male Wistar rats weighing 180 to 200 g are used, 5 rats in each group. Each compound of the invention is suspended in a 30% aqueous solution of polyethylene glycol 6000 and orally given to the rat at the dosage shown in Table 2. The animals are checked for poisoning, body weight and survival to determine the LD50 value.

[3] = target: esterase; assay: Esterase inhibiting activity; assay type: biochemical; details: rat liver microsome esterase, methyl butyrate substrate, pH 8.0, 37° C., 60 minutes; read-out: IC50 for esterases
Procedure: A 10 micromole quantity of methyl butyrate in a 50% ethanol solution is added as a substrate to a specified amount of buffer solution containing 0.1 mole of trishydrochloric acid (pH 8.0). To the mixture is further added a 50% ethanol solution of the compound of the invention, immediately followed by addition of an esterase solution prepared from a purified microsome fraction of the liver of a rat (adjusted to hydrolyze 9 micromoles of methyl butyrate at 37° C. in one hour) as an enzyme solution. The mixture is reacted at 37° C. for 60 minutes.
After the reaction, alkaline hydroxylamine is added to the mixture to form a hydroxamic acid derivative of methyl butyrate, and a ferric salt is added to the derivative. The resulting red color is colorimetrically determined (at a wavelength of 540 nm) to determine the amount of remaining methyl butyrate. The esterase inhibiting ratios of the present compound at least at three concentrations are plotted as ordinate, and the logarithms of the concentrations as abscissa to obtain a line, which gives the 50% inhibition concentration (IC50).

[4] = target: chymotripsin (Bos taurus, UniProt P00766); assay: Chymotripsin inhibiting activity; assay type: biochemical; details: 0.5 h; compound 1×10^-4 mole, ATEE substrate, pH 8.0, 37° C.; read-out: Percent chymotripsin inhibition
Procedure: Chymotripsin (0.1 unit) serving as an enzyme solution is added to a specified quantity of buffer solution containing 0.1 mole of trishydrochloric acid (pH 8.0). To the mixture is further added a 50% ethanol solution of the compound of the invention so that the resulting mixture contains the compound in a concentration of 1×10^-4 mole. The mixture is reacted at 37° C. for 20 minutes.
On completion of the reaction, 10 micromoles of N-acetyl-L-thyrosine ethyl ester (ATEE) serving as a substrate is added to the mixture, and the resulting mixture is reacted at 37° C. for 30 minutes.
After the completion of the reaction, the amount of remaining ATEE is determined by the same hydroxamic acid method as above. The percent chymotripsin inhibition is given by [formula] wherein A is the amount of hydrolyzed esters in the reaction system not containing the compound of the invention, and B is the amount of hydrolyzed esters in the reaction system containing the present compound.

[5] = tested on: cholesterol; assay: Antilipemic effect: percent total cholesterol inhibition in plasma of rats given an olive oil-cholesterol mixture; assay type: in vivo, male Wistar rats; details: plasma 8 hours after dosing, Wistar rat; for inhibition in vivo at 100 mg/kg: oral 100 mg/kg, read-out: Anti-lipemic effect, CS (percent cholesterol inhibition)
In short: as §1

| Compound | LD50 ([2]; po) [mg/kg] | IC50 [3] [nM] | inhibition at 100 µM [4] [%] | also measured |
| --- | --- | --- | --- | --- |
| CCCCCC(=O)COS(=O)(=O)c1c(C)c(C)cc(C)c1C [Compound 90] | > 3000 | 2.6 | 13 | inhibition in vivo at 200 mg/kg [1]: 59% |
| O=C(CCC1CCCCC1)COS(=O)(=O)c1ccccc1 [Compound 164, 2-oxo-4-cyclohexyl-butylbenzenesulfonate] | – | 2200 | 100 | TG (percent triglycerides inhibition), Table 3 [1]: 98% |
| COC(=O)CCCC(=O)COS(=O)(=O)c1ccccc1 [Compound 196] | – | 6800 | 65.3 | TG (percent triglycerides inhibition), Table 3 [1]: 77.9% |
| CCOc1ccc(S(=O)(=O)OCC(=O)CCC(C)CC)cc1 (centres unmarked) [Compound 143] | > 4000 | 2000 | 79 | inhibition in vivo at 200 mg/kg [1]: 62% |
| Cc1cc(C)c(S(=O)(=O)OCC(=O)C2CCCCC2)c(C)c1 [Compound 176] | – | 800 | – | – |
| Cc1cc(C)c(S(=O)(=O)OCC(=O)CC(C)C)c(C)c1 [Compound 149] | > 3000 | 1000 | 7 | inhibition in vivo at 100 mg/kg [1]: 81%; inhibition in vivo at 100 mg/kg [5]: 67% |
| CCCCCCCC(=O)COS(=O)(=O)c1ccc(OCCCC)cc1 [Compound 56] | > 3000 | 1000 | 50 | inhibition in vivo at 200 mg/kg [1]: 64%; Anti-lipemic effect, CS (percent cholesterol inhibition), asterisked ([5]; oral 200 mg/kg (asterisked values)): 42% |
| C=CCCCCCCCCC(=O)COS(=O)(=O)c1c(C)cc(C)c(C)c1C [Compound 101] | > 4000 | 30 | 23 | inhibition in vivo at 200 mg/kg [1]: 54% |
| CCCCC(CC)C(=O)COS(=O)(=O)c1ccccc1C (centres unmarked) [Compound 32] | > 3000 | 350 | 0.4 | inhibition in vivo at 100 mg/kg [1]: 70%; inhibition in vivo at 100 mg/kg [5]: 43% |
| Cc1ccc(S(=O)(=O)OCC(=O)CCc2ccccc2)cc1 [Compound 187] | – | 14000 | 100 | TG (percent triglycerides inhibition), Table 3 [1]: 94% |
| CCCCCCC(=O)COS(=O)(=O)c1ccccc1 [Compound 9] | > 3000 | 68 | 96 | inhibition in vivo at 100 mg/kg [1]: 88%; inhibition in vivo at 100 mg/kg [5]: 62% |
| O=C(CCCCl)COS(=O)(=O)c1ccccc1 [Compound 193, 2-oxo-5-chloro-n-pentyl-benzene sulfonate] | – | 820 | 46.8 | – |
| CCCC(CC)C(=O)COS(=O)(=O)c1ccc(OCC)cc1 (centres unmarked) [Compound 134] | > 4500 | 560000 | 2 | inhibition in vivo at 100 mg/kg [1]: 82%; inhibition in vivo at 100 mg/kg [5]: 65% |
| CCCC(=O)COS(=O)(=O)CC [Compound 1, 2-oxopentylethane sulfonate] | – | 12000 | – | inhibition in vivo at 100 mg/kg [1]: 92%; inhibition in vivo at 100 mg/kg [5]: 89%; LD50 ([2]; oral, six-week-old male Wistar rats, suspended in 30% aqueous polyethylene glycol 6000, read-out: LD50): > 1000 mg/kg |
| CCC(C)CC(=O)COS(=O)(=O)c1c(C)cc(C)cc1C (centres unmarked) [Compound 153] | > 4000 | 640 | 9 | inhibition in vivo at 100 mg/kg [1]: 82%; inhibition in vivo at 100 mg/kg [5]: 83% |
| COCCCC(=O)COS(=O)(=O)c1ccccc1 [Compound 194] | – | 2400 | 3.2 | – |
| CCCCCCCCCCCC(=O)COS(=O)(=O)c1ccc(O)cc1 [Compound 62] | > 3000 | 29 | 93 | inhibition in vivo at 200 mg/kg [1]: 72% |
| COCCCC(=O)COS(=O)(=O)c1c(C)cc(C)cc1C [Compound 205] | – | 1500 | 10 | – |

| Compound | LD50 ([2]; po) [mg/kg] | IC50 [3] [nM] | inhibition at 100 µM [4] [%] | also measured |
| --- | --- | --- | --- | --- |
| CCCCCC(=O)COS(=O)(=O)c1ccc(Cl)cc1 [Compound 66] | – | 2600 | 100 | inhibition in vivo at 100 mg/kg [1]: 88% |
| CCOc1ccc(S(=O)(=O)OCC(=O)CCCC(=O)OC)cc1 [Compound 201, 2-oxo-5-methoxycarbonyl-n-pentyl-p-ethoxybenzene sulfonate] | – | 170000 | 33 | – |
| Cc1ccc(S(=O)(=O)OCC(=O)CCCCCCC(C)C)cc1 [Compound 27] | > 3000 | 670 | 17 | inhibition in vivo at 200 mg/kg [1]: 59% |
| C=CCCCCCCCCC(=O)COS(=O)(=O)c1ccc(C)cc1 [Compound 28] | > 3000 | 230 | 15 | inhibition in vivo at 200 mg/kg [1]: 61% |
| Cc1ccc(S(=O)(=O)OCC(=O)CC2CCCC2)cc1 [Compound 165] | – | 4400 | 90 | – |
| Cc1cc(C)c(S(=O)(=O)OCC(=O)CC2CCCCC2)c(C)c1 [Compound 177] | – | 200 | 10 | – |
| O=C(CCc1ccccc1)COS(=O)(=O)c1ccc(Cl)cc1 [Compound 188] | – | 25000 | 100 | TG (percent triglycerides inhibition), Table 3 [1]: 95% |
| Cc1cc(C)c(S(=O)(=O)OCC(=O)C2CCOCC2)c(C)c1 [Compound 186] | – | 32000 | – | – |
| CCCCCCCCCC(=O)COS(=O)(=O)c1ccc(OC)cc1 [Compound 38] | > 4000 | 100 | 45 | inhibition in vivo at 200 mg/kg [1]: 67% |
| O=C(CCCCCNC(=O)OCc1ccccc1)COS(=O)(=O)c1ccccc1 [Compound 197] | – | 30000 | 47 | – |
| Cc1ccc(S(=O)(=O)OCC(=O)CC2CCCCC2)cc1 [Compound 166] | – | 3500 | 98 | – |
| O=C(COS(=O)(=O)c1ccc(Cl)cc1)C1CCCCC1 [Compound 179] | – | 1500 | 32 | – |
| Cc1ccc(S(=O)(=O)OCC(=O)CCC2CCCCC2)cc1 [Compound 167] | – | 3100 | 100 | TG (percent triglycerides inhibition), Table 3 [1]: 53% |
| CCCCCCCCCCC(=O)COS(=O)(=O)c1c(C)cc(C)cc1C [Compound 80] | > 4000 | 0.032 | 55 | inhibition in vivo at 200 mg/kg [1]: 63% |
| O=C(COS(=O)(=O)c1ccccc1)C1CCCCC1 [Compound 163] | – | 1600 | 13 | – |
| O=C(COS(=O)(=O)c1ccc(O)cc1)CC1CCCCC1 [Compound 169] | – | 800 | – | – |
| CC(=O)OCCCC(=O)COS(=O)(=O)c1ccccc1 [Compound 195] | – | 26000 | 22.2 | TG (percent triglycerides inhibition), Table 3 [1]: 62% |
